Results from patent publication US11766443B2, “Cyclopentathiophene carboxamide derivatives as platelet activating factor receptor antagonists” (Boehringer Ingelheim International GmbH, priority 2021, dated 2023).
Values after ≈ are worked out from the molar mass of the structure shown.

Experiments:
human PAFR = molecular target: T1, human PAFR (Homo sapiens, UniProt P25105); assay: cellular HTRF IP1 endpoint assay: inhibition of PAFR activation by PAF C-16 ligand; type: cell-based; details: HEK293 cells overexpressing human PAFR; PAF ligand 11 nM
T1 construct: expressed in transfected cells; host or cells: HEK293
T1 sequence (P25105 whole entry): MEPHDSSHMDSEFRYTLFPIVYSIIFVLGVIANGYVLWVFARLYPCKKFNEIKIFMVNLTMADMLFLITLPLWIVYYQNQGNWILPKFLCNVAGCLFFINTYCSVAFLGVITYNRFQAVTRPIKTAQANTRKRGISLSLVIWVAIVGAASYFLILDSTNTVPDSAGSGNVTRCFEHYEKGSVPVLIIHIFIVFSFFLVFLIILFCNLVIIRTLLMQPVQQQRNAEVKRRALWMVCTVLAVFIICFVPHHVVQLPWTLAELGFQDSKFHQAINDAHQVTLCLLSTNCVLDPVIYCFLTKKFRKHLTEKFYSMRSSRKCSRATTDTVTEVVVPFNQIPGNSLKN
Protocol: The ability of compounds of formula (I.0) to inhibit the activation of the PAF receptor (PAFR) by the PAF C-16 ligand (PAF) is determined using the following cellular HTRF IP1 assay (IP1 Gq assay kit from Cisbio, Cat. no.: 62IP1APEJ) in assay buffer (1×HBSS, 20 mM Hepes, pH 7.4, 50 mM LiCl and containing 0.1% (w/v) BSA):
HEK293 cells overexpressing human PAFR (produced in-house) are seeded into a Poly-D-Lysine coated 384 well white cell culture microtiter assay plate with lid (15.000 cells per well). Subsequently, the plates are incubated over night at 37° C./5% CO2. On the next day, cells are being washed and subsequently, various concentrations of the test compounds (compounds in 100% DMSO; final concentration of DMSO in wells is 1%) are added to the assay plate via Echo 555 acoustic liquid handler. Plates are then incubated with lid for 90 minutes at 37° C./5% CO2. Thereafter, PAF ligand (Cayman Chemical Company, Item no.: 60900) is added at a final concentration of 11 nM. Plates are then incubated with lid for 60 minutes at 37° C./5% CO2. Then, 5 μl per well of Anti-IP1-Anti body-Cryptate solution and 5 μL per well of IP1-d2 solution are added to all wells of the plate and the plate is incubated for another 60 minutes light protected at room temperature. The emissions at 620 nm and 665 nm (Excitation wavelength: 320 nm) are measured using an Envision Reader (PerkinElmer).

[1] = aqueous solubility in buffer (from DMSO stock, 24 h shaking, LC-UV); details: pH 2.2, aqueous buffer, kinetic from dmso stock
Protocol: The aqueous solubility of the test compound is determined by comparing the amount dissolved in buffer to the amount in an ACN/water (1/1) solution. Starting from a 10 mM DMSO stock solution aliquots are diluted with ACN/water (1/1) or buffer, respectively. After 24 h of shaking, the solutions are filtrated and analyzed by LC-UV. The amount dissolved in buffer is compared to the amount in the ACN solution.
Solubility will usually be measured from 0.001 to 0.125 mg/mL at a DMSO concentration of 2.5%. If more than 90% of the compound is dissolved in buffer, the value is marked with “>”.

Structure (SMILES)	IC50 (human PAFR) [nM]	solubility at 24 h [1] [µg/mL]
Cc1nnc2n1-c1sc3c(c1[C@H](c1ccccc1Cl)NC2)C[C@H](C(=O)NCc1cscn1)C3 [Example 39]	60	> 110
Cc1nnc2n1-c1sc3c(c1[C@H](c1ccccc1Cl)NC2)C[C@H](C(=O)N1C[C@@H](C)O[C@@H](C)C1)C3 [Example 27]	5.5	> 133
COc1ccc(CNC(=O)[C@@H]2Cc3sc4c(c3C2)[C@H](c2ccccc2Cl)NCc2nnc(C)n2-4)cn1 [Example 41]	11	> 119
Cc1nnc2n1-c1sc3c(c1[C@H](c1ccccc1Cl)NC2)C[C@H](C(=O)N1CC2(CCOCC2)C1)C3 [Example 30]	12	80 (≈ 157 µM)
Cc1nnc2n1-c1sc3c(c1[C@H](c1ccccc1Cl)NC2)C[C@H](C(=O)NCc1nccs1)C3 [Example 40]	83	> 111
Cc1nnc2n1-c1sc3c(c1[C@H](c1ccccc1Cl)NC2)C[C@H](C(=O)NCc1cnc(C(F)(F)F)nc1)C3 [Example 46]	6.3	112 (≈ 200 µM)
Cc1nnc2n1-c1sc3c(c1[C@@H](c1ccccc1Cl)NC2)C[C@H](C(=O)NCc1ccc(OC(F)F)nc1)C3 [Example 11]	53	105 (≈ 189 µM)
Cc1nnc2n1-c1sc3c(c1C(c1ccccc1F)NC2)CC(C(=O)N1CCOCC1)C3 (racemic) [Example 55, 9-(2-Fluorophenyl)-3-methyl-13-(morpholine-4-carbonyl)-16-thia-2,4,5,8-tetraazatetracyclo[8.6.0.0^2,6.0^11,15]hexadeca-1(10),3,5,11(15)-tetraene]	240	> 112
Cc1ncsc1CNC(=O)[C@@H]1Cc2sc3c(c2C1)[C@H](c1ccccc1Cl)NCc1nnc(C)n1-3 [Example 48]	15	> 128
Cc1ncc2n1CCN(C(=O)[C@@H]1Cc3sc4c(c3C1)[C@H](c1ccccc1Cl)NCc1nnc(C)n1-4)C2 [Example 29]	69	> 110
CCCN(CCC)C(=O)[C@@H]1Cc2sc3c(c2C1)[C@@H](c1ccccc1Cl)NCc1nnc(C)n1-3 [Example 72, (9S,13S)-9-(2-Chlorophenyl)-3-methyl-N,N-dipropyl-16-thia-2,4,5,8-tetraazatetracyclo[8.6.0.0^2,6.0^11,15]hexadeca-1(10),3,5,11(15)-tetraene-13-carboxamide]	8.1	> 101
Cc1nnc2n1-c1sc3c(c1[C@H](c1ccccc1Cl)NC2)C[C@H](C(=O)N1CCO[C@@H](C)C1)C3 [Example 4, (9R,13S)-9-(2-Chlorophenyl)-3-methyl-13-[(2S)-2-methylmorpholine-4-carbonyl]-16-thia-2,4,5,8-tetraazatetracyclo-[8.6.0.0^2,6.0^11,15]hexadeca-1(10)3,5,11(15)-tetraene]	6.8	> 113
Cc1nnc2n1-c1sc3c(c1C(c1ccccc1C1CC1)NC2)CC(C(=O)N1CCOCC1)C3 (racemic) [Example 59, 9-(2-Cyclopropylphenyl)-3-methyl-13-(morpholine-4-carbonyl)-16-thia-2,4,5,8-tetraazatetracyclo[8.6.0.0^2,6.0^11,15]-hexadeca-1(10),3,5,11(15)-tetraene]	> 322	> 119
Cc1nnc2n1-c1sc3c(c1C(c1ccccc1O)NC2)CC(C(=O)N1CCOCC1)C3 (racemic) [Example 61, 2-[3-Methyl-13-(morpholine-4-carbonyl)-16-thia-2,4,5,8-tetraazatetracyclo[8.6.0.0^2,6.0^11,15]hexadeca-1(10),3,5,11(15)-tetraen-9-yl]phenol]	> 322	> 113
Cc1nnc2n1-c1sc3c(c1[C@H](c1ccccc1Cl)NC2)C[C@H](C(=O)N1C[C@@H](C)O[C@H](C)C1)C3 [Example 5]	8.2	95 (≈ 191 µM)
Cc1ccccc1[C@@H]1NCc2nnc(C)n2-c2sc3c(c21)C[C@H](C(=O)N1CCOCC1)C3 [Example 64, (9S,13S)-3-methyl-9-(2-methylphenyl)-13-(morpholine-4-carbonyl)-16-thia-2,4,5,8-tetraazatetracyclo[8.6.0.0^2,6.0^11,15]-hexadeca-1(10),3,5,11(15)-tetraene]	210	> 108
Cc1nnc2n1-c1sc3c(c1[C@H](c1ccccc1Cl)NC2)C[C@H](C(=O)NCc1ccnc(C(F)(F)F)c1)C3 [Example 45]	1.9	> 140
Cc1noc(C)c1NC(=O)[C@@H]1Cc2sc3c(c2C1)[C@H](c1ccccc1Cl)NCc1nnc(C)n1-3 [Example 25]	4.3	> 136
CCCc1nnc2n1-c1sc3c(c1[C@@H](c1ccccc1Cl)NC2)CC(C(=O)N1CCOCC1)C3 (stereo in doubt) [Example 80, 9-(2-Chlorophenyl)-13-(morpholine-4-carbonyl)-3-propyl-16-thia-2,4,5,8-tetraazatetracyclo[8.6.0.0^2,6.0^11,15]hexadeca-1(10),3,5,11(15)-tetraene]	110	> 104
Cc1nnc2n1-c1sc3c(c1[C@H](c1ccccc1Cl)NC2)C[C@H](C(=O)NCc1ccnnc1)C3 [Example 44]	41	> 112
COc1ccc(Cl)c(C2NCc3nnc(C)n3-c3sc4c(c32)CC(C(=O)N2CCOCC2)C4)c1 (centres unmarked) [Example 62, 9-(2-Chloro-5-methoxyphenyl)-3-methyl-13-(morpholine-4-carbonyl)-16-thia-2,4,5,8-tetraazatetracyclo-[8.6.0.0^2,6.0^11,15]hexadeca-1(10),3,5,11(15)-tetraene]	94	> 118
CCc1ccccc1C1NCc2nnc(C)n2-c2sc3c(c21)CC(C(=O)N1CCOCC1)C3 (racemic) [Example 53, 9-(2-Ethylphenyl)-3-methyl-13-(morpholine-4-carbonyl)-16-thia-2,4,5,8-tetraazatetracyclo[8.6.0.0^2,6.0^11,15]hexadeca-1(10),3,5,11(15)-tetraene]	297	116 (≈ 250 µM)
CSc1ccccc1C1NCc2nnc(C)n2-c2sc3c(c21)C[C@H](C(=O)N1CCOCC1)C3 (mixture of isomers) [Example 79, 3-Methyl-9-[2-(methylsulfanyl)phenyl]-13-(morpholine-4-carbonyl)-16-thia-2,4,5,8-tetraazatetracyclo[8.6.0.0^2,6.0^11,15]hexadeca-1(10),3,5,11(15)-tetraene]	235	> 119
Cc1nnc2n1-c1sc3c(c1[C@H](c1ccccc1Cl)NC2)C[C@H](C(=O)N1C[C@H](C)O[C@@H](C)C1)C3 [Example 6]	11	> 112
CCc1nnc2n1-c1sc3c(c1[C@H](c1ccccc1Cl)NC2)C[C@H](C(=O)N1CCOCC1)C3 [Example 69]	35	> 121

The remaining lines, values ahead:

IC50 (human PAFR) [nM]	solubility at 24 h [1] [µg/mL]	Structure (SMILES)
1.4	108 (≈ 193 µM)	Cc1nnc2n1-c1sc3c(c1[C@H](c1ccccc1Cl)NC2)C[C@H](C(=O)NCc1ccc(C(F)(F)F)cn1)C3 [Example 38]
1.7	> 113	Cc1nnc2n1-c1sc3c(c1[C@H](c1ccccc1Cl)NC2)C[C@H](C(=O)NCC1CC1)C3 [Example 15]
2.9	100 (≈ 179 µM)	Cc1nnc2n1-c1sc3c(c1[C@H](c1ccccc1Cl)NC2)C[C@H](C(=O)NCc1cc(C(F)(F)F)ccn1)C3 [Example 37]
2.8	> 139	Cc1nnc2n1-c1sc3c(c1[C@H](c1ccccc1Cl)NC2)C[C@H](C(=O)NC(C)(C)CO)C3 [Example 33]
1.3	> 140	Cc1nnc2n1-c1sc3c(c1[C@H](c1ccccc1Cl)NC2)C[C@H](C(=O)NC1(c2ccc(Cl)cn2)CC1)C3 [Example 10]
3.6	130 (≈ 233 µM)	Cc1nnc2n1-c1sc3c(c1[C@H](c1ccccc1Cl)NC2)C[C@H](C(=O)NCc1ccc(C(F)(F)F)nc1)C3 [Example 7]
2.6	104 (≈ 186 µM)	Cc1nnc2n1-c1sc3c(c1[C@H](c1ccccc1Cl)NC2)C[C@H](C(=O)NCc1cncc(C(F)(F)F)c1)C3 [Example 43]
2.2	> 116	Cc1nnc2n1-c1sc3c(c1[C@H](c1ccccc1Cl)NC2)C[C@H](C(=O)NC12CC(C1)C2)C3 [Example 51]
1.3	> 114	Cc1nnc2n1-c1sc3c(c1[C@H](c1ccccc1Cl)NC2)C[C@H](C(=O)NC1CCC(F)(F)CC1)C3 [Example 23]
0.5	98 (≈ 198 µM)	CCC12CC(NC(=O)[C@@H]3Cc4sc5c(c4C3)[C@H](c3ccccc3Cl)NCc3nnc(C)n3-5)(C1)C2 [Example 50]
0.4	109 (≈ 195 µM)	Cc1nnc2n1-c1sc3c(c1[C@H](c1ccccc1Cl)NC2)C[C@H](C(=O)NCc1ccc(C(F)(F)F)cc1)C3 [Example 14]
2.1	> 126	Cc1nnc2n1-c1sc3c(c1[C@H](c1ccccc1Cl)NC2)C[C@H](C(=O)N(C)Cc1ccccc1)C3 [Example 34]
